Laboratory results: publication PMC3723632, “A Multi-targeted Drug Candidate with Dual Anti-HIV and Anti-HSV Activity” (PLoS Pathogens, 2013)
Converted amounts (≈) assume the structure as drawn. Where two headings read alike, the source gives them in different places.

How the values were obtained:
[1] = system: HSV-1 (KOS and clinical isolates); assay: microbe, parasite or virus in culture; format: cell-based; conditions: Human alphaherpesvirus 1, HEL
Description: (§1) Figure 2 Antiherpetic activity of test compounds in cell culture. Confluent HEL cell cultures were exposed to 100 TCID50 of clinical virus isolates [wild-type HSV-1 (panel A), wild-type HSV-2 (panel B), TK^− HSV-1 (panel C) and TK^− HSV-2 (panel D)] in the presence of drugs at different concentrations and incubated for 3 days at 37°C. […] Data shown are the means of at least two independent experiments.

[2] = system: HSV-2 (G and clinical isolates); assay: microbe, parasite or virus in culture; format: cell-based; conditions: Human alphaherpesvirus 2, HEL
Description: as §1

HSV-2 (G) [3] = assay: HSV-2 infection of primary monocyte/macrophage (M/M) cultures; format: cell-based; conditions: for inhibition at 0.0032 µg/mL / inhibition at 0.016 µg/mL / inhibition at 0.08 µg/mL / inhibition at 0.4 µg/mL / inhibition at 2 µg/mL / inhibition at 10 µg/mL / inhibition at 50 µg/mL: Human alphaherpesvirus 2, 144 h, day 6, read-out: Inhibition of viral replication (% to control); for EC50: Human alphaherpesvirus 2; for inhibition of HSV-2 replication: 2- to 10-µg/ml
Description: We obtained human PBMC from the blood of healthy seronegative donors using Ficoll–Hypaque density gradient centrifugation. The PBMC were resuspended in RPMI 1640 medium supplemented with 20% heat-inactivated serum and then seeded into 48-well plates (1.8×10^6 cells/well). M/M were separated by adherence onto plastic. After 5 days, non-adherent cells were carefully removed by repeated gentle washings with warm medium, and adherent M/M were cultured for an additional 3 days to mature and to form a monolayer. M/M were estimated to be 10^5 cells/well at the time of infection. […]. Similarly, macrophage cultures were treated with the same concentrations of adefovir and tenofovir. Macrophage cultures were then infected with HSV-2 (G) (100 TCID50) in the presence of the compounds. After 2 h of adsorption, the cultures were extensively washed to remove any residual virus particles. Fresh complete medium and compounds, at the established concentrations, were then added to the cultures. Appropriate positive (infected but not treated) and mock-infected negative (uninfected and untreated) M/M controls were run for each experiment as well. All assays were performed in triplicate. […] We determined the amount of infectious virus in the supernatants 5–6 days after infection using the cytopathic effect assay. Tenfold serially diluted supernatants were added to confluent monolayers of Vero cells in 96-well plates (100 µl/well, 6 parallel wells). […] The titers of virus produced were calculated according to the Reed and Muench method and expressed as 50% tissue culture infective dose per mL (TCID50/mL).

HSV-2 (G) [4] = assay: HSV-2 replication in human ex vivo tonsillar (lymphoid) tissue, viral DNA; format: cell-based; conditions: for HSV-2 DNA copies: human lymphoid tissue ex vivo; for EC99 (viral load reduced by 2 orders of magnitude): tonsilar tissue, RT-PCR assay
Source text: Figure 5 Suppression of HSV-2 in infected human ex vivo tonsillar tissue by adefovir and PMEO-DAPym. Blocks of human tonsillar tissue were inoculated ex vivo with HSV-2 (G) and treated or not with adefovir or PMEO-DAPym. We monitored HSV-2 (G) replication by measuring viral DNA in culture media at different times throughout the culture period. Presented are means ± SEM of cumulative HSV-2 (G) replication in tissues from two to six donors. For each donor, data represent pooled viral release from 27 tissue blocks.
Figure 7 Suppression of HSV-2 in single-infected and HIV-1 co-infected human ex vivo tonsillar tissue by adefovir and PMEO-DAPym. Panels A and B: Blocks of human tonsillar tissue from five different donors were co-inoculated ex vivo with HSV-2 (G) and HIV-1 (LAI) and treated or not with adefovir or PMEO-DAPym (1 µg/ml). For tissue from each donor, we monitored replication of both viruses by evaluating their accumulation in the culture media bathing 27 tissue blocks at different times throughout the culture. We evaluated HIV-1 replication by measuring p24gag and HSV-2 (G) replication by measuring HSV-2 viral DNA. Panel A: Presented are kinetics of HSV-2 (G) and HIV-1 (LAI) replication (insert). Each point represents the mean ± SEM of viral replication in tissues from five donors. Panel B: Presented are means ± SEM of cumulative HSV-2 (G) and HIV-1 (LAI) replication (insert).
Human tonsillar tissues were obtained from patients undergoing routine tonsillectomy at the Children's National Medical Center (Washington, DC) under IRB-approved protocol. Cervical tissues were obtained through the National Disease Research Interchange (NDRI, Philadelphia, PA). Tissues were dissected into blocks of about 2×2×2 mm and placed onto collagen sponge gels in culture medium at the air-liquid interface as described earlier. For tonsillar tissue for each experimental condition, 27 tissue blocks (9 blocks/well filled with 3 ml of medium) were inoculated with HSV-1 (strain F) or HSV-2 (strains G and MS). In coinfection experiments, tissue blocks were sequentially infected with HSV-2 (G) and HIV-1 (IIIB) (obtained from the Rush University Virology Quality Assurance Laboratory, Chicago, IL). Drugs (adefovir and PMEO-DAPym) were added to the culture medium 12 h prior to viral infection and replenished at each culture medium change.
(§2) For cervico-vaginal tissue, 16 blocks were infected by immersion in HSV-2G-containing medium and maintained on the gelfoam rafts. Adefovir was added at the time of infection and replenished at each culture medium change. HSV replication was evaluated from the release of viral DNA into the culture medium as measured with quantitative real-time PCR [18]. We evaluated HIV-1 replication from the release of p24 capsid antigen using a bead-based assay.

HIV-1 (LAI) = assay: HIV-1 replication (p24) in coinfected human ex vivo lymphoid tissue; format: cell-based; conditions: lymphoid tissue coinfected with HIV-1 and HSV-2, 1 µg/ml
Description: Figure 7 Suppression of HSV-2 in single-infected and HIV-1 co-infected human ex vivo tonsillar tissue by adefovir and PMEO-DAPym. Panels A and B: Blocks of human tonsillar tissue from five different donors were co-inoculated ex vivo with HSV-2 (G) and HIV-1 (LAI) and treated or not with adefovir or PMEO-DAPym (1 µg/ml). For tissue from each donor, we monitored replication of both viruses by evaluating their accumulation in the culture media bathing 27 tissue blocks at different times throughout the culture. We evaluated HIV-1 replication by measuring p24gag and HSV-2 (G) replication by measuring HSV-2 viral DNA. Panel A: Presented are kinetics of HSV-2 (G) and HIV-1 (LAI) replication (insert). Each point represents the mean ± SEM of viral replication in tissues from five donors. Panel B: Presented are means ± SEM of cumulative HSV-2 (G) and HIV-1 (LAI) replication (insert). […]
For cervico-vaginal tissue, 16 blocks were infected by immersion in HSV-2G-containing medium and maintained on the gelfoam rafts. […] HSV replication was evaluated from the release of viral DNA into the culture medium as measured with quantitative real-time PCR [18]. We evaluated HIV-1 replication from the release of p24 capsid antigen using a bead-based assay.

HSV-2 (G) [5] = assay: HSV-2 replication in human cervico-vaginal explants; format: cell-based; conditions: 1 µg/ml
Description: Figure 6 Suppression of HSV-2 in human cervico-vaginal tissues by adefovir and PMEO-DAPym. Blocks of human cervico-vaginal tissues were inoculated ex vivo with HSV-2 (G) or co-infected with HIV-1 and HSV-2 and treated or not with adefovir (1 µg/ml) or PMEO-DAPym (1 µg/ml). We monitored HSV-2 (G) replication by measuring viral DNA accumulated in culture media at different times throughout the culture period. Presented is cumulative HSV-2 (G) replication, with data representing pooled viral release from 16 tissue blocks.
as §2

HSV-2 (G strain) = assay: Pre-treatment of PHK cell cultures, HSV-2 infection (CPE)
Description: The HSV-induced cytopathic effect (CPE) was evaluated in HSV-infected HEL and PHK cultures as described [44], [48].

[6] = HSV-1, average of six TK-deficient clinical isolates
[7] = HSV-1, average of six clinical isolates
[8] = HSV-2, average of seven TK-deficient clinical isolates
[9] = HSV-2, average of seven clinical isolates
[10] = HSV-2 (G), human monocyte/macrophages
[11] = Human alphaherpesvirus 2, read-out: 50% effective concentration, PHK, HSV-2 G, +2 h to 72 h (control, drug present whole incubation)
[12] = Human alphaherpesvirus 2, read-out: 50% effective concentration, PHK, HSV-2 G, pretreatment −2.5 h to 0 h
[13] = Human alphaherpesvirus 2, read-out: 50% effective concentration, PHK, HSV-2 G, pretreatment −6 h to 0 h
[14] = Human alphaherpesvirus 2, read-out: 50% effective concentration, PHK, HSV-2 G, pretreatment −18 h to 0 h

Compound	EC50 ([1]; HSV-1 (KOS))	EC50 [1, 6]	EC50 [1, 7]	EC50 ([2]; HSV-2 (G))	EC50 [2, 8]	EC50 [2, 9]	Virus production by HSV2-infected macrophages 6 days after infection (CPE reduction) (HSV-2 (G) [3]; 0.0032 µg/ml)	Cytopathicity (CPE) on macrophages 6 days after infection % CPE (HSV-2 (G) [3]; 0.016 µg/ml)	Virus production by HSV2-infected macrophages 6 days after infection (CPE reduction) (HSV-2 (G) [3]; 0.016 µg/ml)	Cytopathicity (CPE) on macrophages 6 days after infection % CPE (HSV-2 (G) [3]; 0.08 µg/ml)	Virus production by HSV2-infected macrophages 6 days after infection (CPE reduction) (HSV-2 (G) [3]; 0.08 µg/ml)	Virus production by HSV2-infected macrophages 6 days after infection (CPE reduction) (HSV-2 (G) [3]; 0.4 µg/ml)	Virus production by HSV2-infected macrophages 6 days after infection (CPE reduction) (HSV-2 (G) [3]; 2 µg/ml)	Virus production by HSV2-infected macrophages 6 days after infection (CPE reduction) (HSV-2 (G) [3]; 10 µg/ml)	Virus production by HSV2-infected macrophages 6 days after infection (CPE reduction) (HSV-2 (G) [3]; 50 µg/ml)	inhibition at 0.0032 µg/mL (HSV-2 (G) [3]; 0.0032 µg/ml, M/M)	inhibition at 0.016 µg/mL (HSV-2 (G) [3]; 0.016 µg/ml, M/M)	inhibition at 0.08 µg/mL (HSV-2 (G) [3]; 0.08 µg/ml, M/M)	inhibition at 0.4 µg/mL (HSV-2 (G) [3]; 0.4 µg/ml, M/M)	inhibition at 2 µg/mL (HSV-2 (G) [3]; 2 µg/ml, M/M)	also measured
Nc1cc(OCCOCP(=O)(O)O)nc(N)n1 [PMEO-DAPym, 6-phosphonylmethoxyethoxy-2,4-diaminopyrimidine]	2.6 ± 1.2 µg/mL (≈ 9.84 µM)	2.4 ± 0.6 µg/mL (≈ 9.08 µM)	2 ± 0.5 µg/mL (≈ 7.57 µM)	4.4 ± 2.4 µg/mL (≈ 16.7 µM)	2.4 ± 0.4 µg/mL (≈ 9.08 µM)	2 ± 0.4 µg/mL (≈ 7.57 µM)	1.5×10^4 TCID50/ml	80%	1.35×10^4 TCID50/ml	55%	7.5×10^3 TCID50/ml	9.5×10^2 TCID50/ml	2.26×10^2 TCID50/ml	No virus	No virus	< 0%	3.5%	46%	93%	98 to 100%	Cytopathicity (CPE) on macrophages 6 days after infection % CPE (HSV-2 (G) [3]; 10 µg/ml): 0–5%; inhibition at 10 µg/mL (HSV-2 (G) [3]; 10 µg/ml, M/M): 100%; inhibition at 50 µg/mL (HSV-2 (G) [3]; 50 µg/ml, M/M): 100%; EC50 (HSV-2 (G) [3]; [10]): 0.09 ± 0.03 µg/mL (≈ 0.341 µM); inhibition of HSV-2 replication (HSV-2 (G) [3]; M/M): virtually completely inhibited; inhibition at 0.3 µg/mL (HSV-2 (G) [4]; Human alphaherpesvirus 2, human lymphoid tissue ex vivo, 0.3 µg/mL, read-out: Inhibition of viral replication (% to control)): 52.8%; inhibition at 3 µg/mL (HSV-2 (G) [4]; Human alphaherpesvirus 2, human lymphoid tissue ex vivo, 3 µg/mL, read-out: Inhibition of viral replication (% to control)): > 99%; HSV-2 DNA copies (HSV-2 (G) [4]; 0.3 µg/mL): 5.76 e+7 copies; HSV-2 DNA copies (HSV-2 (G) [4]; 3 µg/mL): 8.08 e+5 copies; EC99 (viral load reduced by 2 orders of magnitude) (HSV-2 (G) [4]): 2 µg/mL; HIV-1 inhibition (HIV-1 (LAI)): 2 orders of magnitude; inhibition of HSV-2 infection (HSV-2 (G) [5]): markedly inhibited; EC50 (HSV-2 (G strain); [11]): 3.5 ± 1.1 µg/mL (≈ 13.2 µM); EC50 (HSV-2 (G strain); [12]): 31.6 µg/mL (≈ 120 µM); EC50 (HSV-2 (G strain); [13]): 12.6 µg/mL (≈ 47.7 µM); EC50 (HSV-2 (G strain); [14]): 8.7 ± 1.8 µg/mL (≈ 32.9 µM)
Nc1ncnc2c1ncn2CCOCP(=O)(O)O [Adefovir, 9-(2-phosphonylmethoxyethyl)adenine]	4.7 ± 1.8 µg/mL (≈ 17.2 µM)	7 ± 1.4 µg/mL (≈ 25.6 µM)	6.2 ± 1 µg/mL (≈ 22.7 µM)	6.3 ± 2.6 µg/mL (≈ 23.1 µM)	7.5 ± 1.5 µg/mL (≈ 27.5 µM)	5.9 ± 0.9 µg/mL (≈ 21.6 µM)	1.6×10^4 TCID50/ml	60%	7.2×10^3 TCID50/ml	40%	1.8×10^3 TCID50/ml	8×10^2 TCID50/ml	No virus	No virus	No virus	< 0%	49%	87%	94%	100%	inhibition at 10 µg/mL (HSV-2 (G) [3]; 10 µg/ml, M/M): 100%; inhibition at 50 µg/mL (HSV-2 (G) [3]; 50 µg/ml, M/M): 100%; EC50 (HSV-2 (G) [3]; [10]): 0.016 ± 0.004 µg/mL (≈ 0.0586 µM); EC50 (HSV-2 (G) [3]; M/M, range over the compounds): 0.02 to 0.2 µg/mL (≈ 0.0732 to 0.732 µM); inhibition of HSV-2 replication (HSV-2 (G) [3]; M/M): virtually completely inhibited; EC99 (viral load reduced by 2 orders of magnitude) (HSV-2 (G) [4]): 5 µg/mL; HIV-1 inhibition (HIV-1 (LAI)): 2 orders of magnitude; inhibition of HSV-2 infection (HSV-2 (G) [5]): markedly inhibited; EC50 (HSV-2 (G strain); [11]): 9.2 ± 6 µg/mL (≈ 33.7 µM); EC50 (HSV-2 (G strain); [12]): 20 µg/mL (≈ 73.2 µM); EC50 (HSV-2 (G strain); [13]): 11.9 µg/mL (≈ 43.6 µM); EC50 (HSV-2 (G strain); [14]): 13.3 ± 2.6 µg/mL (≈ 48.7 µM)
